Data: patent US20250361234A1 (NICO THERAPEUTICS, INC., priority 2022, published 2025)

Target: T1, full-length SARM1 (FL-SARM1) (Homo sapiens, UniProt Q6SZW1)
T1 sequence (Q6SZW1 28-724): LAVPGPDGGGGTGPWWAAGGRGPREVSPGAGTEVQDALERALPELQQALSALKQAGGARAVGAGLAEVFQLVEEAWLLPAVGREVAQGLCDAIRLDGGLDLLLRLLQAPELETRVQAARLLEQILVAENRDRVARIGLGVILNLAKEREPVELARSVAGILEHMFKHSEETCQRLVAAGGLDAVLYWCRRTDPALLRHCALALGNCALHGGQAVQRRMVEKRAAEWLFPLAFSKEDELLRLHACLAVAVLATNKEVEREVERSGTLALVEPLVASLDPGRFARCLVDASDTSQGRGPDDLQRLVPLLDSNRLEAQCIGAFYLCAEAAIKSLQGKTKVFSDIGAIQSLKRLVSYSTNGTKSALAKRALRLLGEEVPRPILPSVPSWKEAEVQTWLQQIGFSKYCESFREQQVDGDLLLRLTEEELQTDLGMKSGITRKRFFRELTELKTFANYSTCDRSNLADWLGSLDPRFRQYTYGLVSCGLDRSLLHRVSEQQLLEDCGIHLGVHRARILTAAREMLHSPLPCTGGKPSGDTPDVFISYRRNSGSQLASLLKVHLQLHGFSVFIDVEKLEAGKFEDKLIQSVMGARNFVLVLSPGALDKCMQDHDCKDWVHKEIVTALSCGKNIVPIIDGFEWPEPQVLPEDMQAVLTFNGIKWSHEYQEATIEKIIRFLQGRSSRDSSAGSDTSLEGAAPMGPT
Assay: FL-SARM1 cellular lysate assay (NAD/NADH-Glo readout of remaining NAD+)
Conditions: SARM1 cellular lysate from transfected HEK293T cells, NAD+ and NMN, 11 point curve
Procedure: Preparation of full-length SARM1 (FL-SARM1) lysate: HEK293T cells (ATCC: CRL-3216) were grown on 150 mm TC-treated dishes to 80-90% confluency in complete DMEM (Thermo Fisher: 11965175) supplemented with 10% HI-FBS (VWR: 10802-772), 1× Pen/Strep (Thermo Fisher: 15140122), 1× NEAA (Thermo Fisher: 1140050), 1× glutamax (Thermo Fisher: 35050061), and 1 mM sodium pyruvate (Thermo Fisher: 11360070)) at 37° C. and 5% CO2. One hour prior to transfection, the media was replaced with fresh, 37° C. complete DMEM (20 mL per one 150 mm dish) supplemented with additional 10 mM glucose (Alfa Aesar AAJ60067EQE). Per one 150 mm dish, 30 μg FL-SARM1 (SEQ. ID. 1; cloned in-house) plasmid was dissolved in 1 mL DMEM at ambient temperature and were mixed by inverting the tube 8-10 times. 90 μL of GenJet™ in vitro DNA transfection reagent (Ver2) was dissolved in 1 mL DMEM at ambient temperature and were mixed by inverting the tube 8-10 times. The plasmid and transfection agent solutions were combined, mixed by 8-10 inversions and incubated for 10 minutes at ambient temperature. 2 mL of this transfection mixture was added to each dish containing HEK293T cells as prepared above followed by a gentle mixing of 4-5 horizontal rotations. The dishes were incubated at 37° C. and 5% CO2 for 24 h. The dishes were removed from the incubator, the medium was aspirated and the cells were scraped off using cell scrapers in ice-cold 1× PBS (5 mL/dish, Thermo Fisher Scientific 10010023). The collected cells were centrifuged at 300 g for 5 minutes at 4° C. The supernatant was aspirated and the pellet was frozen at −80° C. until needed. The cell pellet from 30 dishes was dissolved in 30 mL 1× PBS supplemented with 4 tablets of Complete, Mini EDTA-free protease inhibitor cocktail at 4° C. This mixture was sonicated on ice for 10 minutes at 50% amplitude with a 1 second on/1 second off interval using a Model 120 sonicator (Thermo Fisher Scientific, FB120110). The lysate was centrifuged at 16000 g for 10 minutes at 4° C.
To a white 384-well Proxiplate (PerkinElmer, PE-6008280) was added 50 nL/well of a DMSO solution containing test compounds followed by 7.5 mL/well of a 0.067 mg/mL solution of SARM1 cellular lysate in reaction buffer (DPBS containing CHAPSO (0.1%) and fatty acid free BSA (0.032%)). The plate was centrifuged for 1 minute at 1000 RPM and then placed in an incubator at 23° C. for 15 minutes. To the wells were added 2.5 mL/well of a solution containing 40 mM NAD^+ and 4 mM NMN in reaction buffer. The plate was centrifuged for 1 min at 1000 RPM, the plate was sealed and placed in an incubator at 23° C. for 3.5 hours before adding 3.5 mL/well of NAD/NADH-Glo™ solution (preparation as described by Promega using the extended detection protocol). The plate was centrifuged for 1 minute at 1000 RPM and then incubated at 23° C. for 20 minutes. 1 mL/well of a 3.625 mM solution of menadione in DMSO was added and the plate was centrifuged for 1 minute at 1000 RPM. […] Percent inhibition was calculated as follows:
IC50 values were calculated from an 11 point curve using ½ log dilutions using a four-parameter logistic regression curve fit.

`Cc1ccc(NC(=O)N2C3CC2CC(C)(O)C3)cc1-c1cncc(F)c1` (single isomer, unassigned) [Example 46, N-(3-(5-fluoropyridin-3-yl)-4-methylphenyl)-3-hydroxy-3-methyl-6-azabicyclo[3.1.1]heptane-6-carboxamide] gave an IC50 (Activity (μM)) of 8.7 µM and an IC50 (Activity) of 1 to 10 µM.

With `Cc1ccc(NC(=O)N2C3CCCC2C3)cc1-c1ccc(C#N)nc1` [Example 60, N-[3-(6-cyanopyridin-3-yl)-4-methylphenyl]-6-azabicyclo[3.1.1]heptane-6-carboxamide] the IC50 (Activity (μM)) was 8.5 µM and the IC50 (Activity) was 1 to 10 µM.

With `O=C(Nc1cccc(-c2cncc(F)c2)c1)N1C2CCCC1C2` [Example 73, N-[3-(5-fluoropyridin-3-yl)phenyl]-6-azabicyclo[3.1.1]heptane-6-carboxamide] the IC50 (Activity (μM)) was 1.2 µM and the IC50 (Activity) was 1 to 10 µM.

`Cc1nnc(C23CCCC(C2)N3C(=O)Nc2ccc(C)c(-c3cncc(F)c3)c2)o1` (stereo not shown) [Example 98, N-[3-(5-fluoro-3-pyridyl)-4-methyl-phenyl]-1-(5-methyl-1,3,4-oxadiazol-2-yl)-6-azabicyclo[3.1.1]heptane-6-carboxamide] showed an IC50 (Activity (μM)) of 0.2 µM and an IC50 (Activity) of 0.0001 to 1 µM.

`Cc1ccc(NC(=O)[C@@H]2CC2(F)F)cc1-c1cncc(F)c1` [Example 110, (S)-2,2-difluoro-N-(3-(5-fluoropyridin-3-yl)-4-methylphenyl)cyclopropanecarboxamide] was tested, and the IC50 (Activity (μM)) was 8.2 µM and the IC50 (Activity) was 1 to 10 µM.

`Cc1ccc(NC(=O)N2C3CCC2CC3)cc1-c1cncc(F)c1` [Example 97, N-[3-(5-fluoropyridin-3-yl)-4-methylphenyl]-7-azabicyclo[2.2.1]heptane-7-carboxamide] gave an IC50 (Activity (μM)) of 0.4 µM and an IC50 (Activity) of 0.0001 to 1 µM.

In the case of `Cc1ccc(NC(=O)N2C3CCCC2C3)cc1-c1cncc(OCF)c1` [Example 45, N-(3-(5-(fluoromethoxy)pyridin-3-yl)-4-methylphenyl)-6-azabicyclo[3.1.1]heptane-6-carboxamide], the IC50 (Activity (μM)) is reported as 0.06 µM and the IC50 (Activity) is reported as 0.0001 to 1 µM.

`Cc1nnc([C@@]23C[C@@H](C)C[C@@H](C2)N3C(=O)Nc2ccc(Cl)c(-c3cncc(F)c3)c2)o1` (single isomer, unassigned) [Example 134, cis-N-[4-chloro-3-(5-fluoro-3-pyridinyl)phenyl]-3-methyl-1-(5-methyl-1,3,4-oxadiazol-2-yl)-6-azabicyclo[3.1.1]heptane-6-carboxamide] gave an IC50 (Activity (μM)) of 0.02 µM and an IC50 (Activity) of 0.0001 to 1 µM.

For `Cc1ccc(NC(=O)[C@H]2C[C@@H](C3CC3)C2)cc1-c1cncc(F)c1` [Example 109, cis-3-cyclopropyl-N-[3-(5-fluoropyridin-3-yl)-4-methylphenyl]cyclobutane-1-carboxamide], the IC50 (Activity (μM)) was 0.5 µM and the IC50 (Activity) was 0.0001 to 1 µM.

With `C[C@@H]1CC2C[C@@H](C1)N2C(=O)Nc1ccc(C(F)(F)F)c(-c2cncc(F)c2)c1` (single isomer, unassigned) [Example 52, trans-N-(3-(5-fluoropyridin-3-yl)-4-(trifluoromethyl)phenyl)-3-methyl-6-azabicyclo[3.1.1]heptane-6-carboxamide] the IC50 (Activity (μM)) was 0.08 µM and the IC50 (Activity) was 0.0001 to 1 µM.

`Cc1ccc(NC(=O)[C@@H]2CC2(F)F)cc1-c1cccnc1C` [Example 112, (1S)-2,2-difluoro-N-[4-methyl-3-(2-methylpyridin-3-yl)phenyl]cyclopropane-1-carboxamide] was tested, and the IC50 (Activity (μM)) was 33.3 µM and the IC50 (Activity) was > 10 µM.

In the case of `COC(=O)[C@H]1C[C@@H]2C[C@H](C1)N2C(=O)Nc1ccc(C)c(-c2cncc(F)c2)c1` (single isomer, unassigned) [Example 12, trans-methyl 6-((3-(5-fluoropyridin-3-yl)-4-methylphenyl)carbamoyl)-6-azabicyclo[3.1.1]heptane-3-carboxylate], the IC50 (Activity (μM)) is reported as 3.7 µM and the IC50 (Activity) is reported as 1 to 10 µM.

With `Cc1ccc(NC(=O)N2C3CC[C@H](C#N)[C@@H]2C3)cc1-c1cncc(F)c1` [Example 30, cis-2-cyano-N-(3-(5-fluoropyridin-3-yl)-4-methylphenyl)-6-azabicyclo[3.1.1]heptane-6-carboxamide] the IC50 (Activity (μM)) was 5.5 µM and the IC50 (Activity) was 1 to 10 µM.

`COc1ncccc1-c1cc(NC(=O)N2C3CCCC2C3)ccc1C` [Example 68, N-(3-(2-methoxypyridin-3-yl)-4-methylphenyl)-6-azabicyclo[3.1.1]heptane-6-carboxamide] was tested, and the IC50 (Activity (μM)) was 2.5 µM and the IC50 (Activity) was 1 to 10 µM.

In the case of `C[C@H]1CC2C[C@@H](C1)N2C(=O)Nc1ccc(C#N)c(-c2cncc(F)c2)c1` (single isomer, unassigned) [Example 78, cis-N-(4-cyano-3-(5-fluoropyridin-3-yl)phenyl)-3-methyl-6-azabicyclo[3.1.1]heptane-6-carboxamide], the IC50 (Activity (μM)) is reported as 0.1 µM and the IC50 (Activity) is reported as 0.0001 to 1 µM.

In the case of `Cc1ccc(NC(=O)N2C3C[C@@H](C#N)C[C@@H]2C3)cc1-c1cncc(F)c1` [Example 36, trans-3-cyano-N-(3-(5-fluoropyridin-3-yl)-4-methylphenyl)-6-azabicyclo[3.1.1]heptane-6-carboxamide], the IC50 (Activity (μM)) is reported as 0.8 µM and the IC50 (Activity) is reported as 0.0001 to 1 µM.

Work on `C[C@@H]1CC2C[C@H](C1)N2C(=O)Nc1ccc(C(F)(F)F)c(-c2cncc(F)c2)c1` (single isomer, unassigned) [Example 53, cis-N-(3-(5-fluoropyridin-3-yl)-4-(trifluoromethyl)phenyl)-3-methyl-6-azabicyclo[3.1.1]heptane-6-carboxamide] yielded an IC50 (Activity (μM)) of 0.06 µM and an IC50 (Activity) of 0.0001 to 1 µM.

In the case of `Cc1ccc(NC(=O)N2C3CCCC2C3)cc1-c1cnc(C)c(F)c1` [Example 89, N-(3-(5-fluoro-6-methylpyridin-3-yl)-4-methylphenyl)-6-azabicyclo[3.1.1]heptane-6-carboxamide], the IC50 (Activity (μM)) is reported as 0.4 µM and the IC50 (Activity) is reported as 0.0001 to 1 µM.

`Cc1ccc(NC(=O)N2CC3CCC2C3)cc1-c1cncc(F)c1` (stereo not shown) [Example 18, N-(3-(5-fluoropyridin-3-yl)-4-methylphenyl)-2-azabicyclo[2.2.1]heptane-2-carboxamide] showed an IC50 (Activity (μM)) of 1 µM and an IC50 (Activity) of 1 to 10 µM.

For `COc1cncc(-c2cc(NC(=O)N3[C@@H]4C[C@@H](C)C[C@@]3(c3nnc(C)o3)C4)c(F)cc2C(F)(F)F)c1` (single isomer, unassigned) [Example 123, cis-N-(2-fluoro-5-(5-methoxypyridin-3-yl)-4-(trifluoromethyl)phenyl)-3-methyl-1-(5-methyl-1,3,4-oxadiazol-2-yl)-6-azabicyclo[3.1.1]heptane-6-carboxamide], the IC50 (Activity (μM)) was 0.006 µM and the IC50 (Activity) was 0.0001 to 1 µM.

With `Cc1ccc(NC(=O)N2C3C[C@@H](C(F)F)C[C@@H]2C3)cc1-c1cncc(F)c1` [Example 4, trans-3-(difluoromethyl)-N-(3-(5-fluoropyridin-3-yl)-4-methylphenyl)-6-azabicyclo[3.1.1]heptane-6-carboxamide] the IC50 (Activity (μM)) was 0.1 µM and the IC50 (Activity) was 0.0001 to 1 µM.

In the case of `O=C(Nc1ccc(C(F)(F)F)c(-c2cncc(F)c2)c1)N1C2CCCC1C2` [Example 75, N-(3-(5-fluoropyridin-3-yl)-4-(trifluoromethyl)phenyl)-6-azabicyclo[3.1.1]heptane-6-carboxamide], the IC50 (Activity (μM)) is reported as 1 µM and the IC50 (Activity) is reported as 1 to 10 µM.

In the case of `Cc1ccc(NC(=O)N2C3CC[C@@H](C(=O)N(C)C)[C@@H]2C3)cc1-c1cncc(F)c1` [Example 34, trans-N^6-(3-(5-fluoropyridin-3-yl)-4-methylphenyl)-N^2,N^2-dimethyl-6-azabicyclo[3.1.1]heptane-2,6-dicarboxamide], the IC50 (Activity (μM)) is reported as 47.3 µM and the IC50 (Activity) is reported as > 10 µM.

Work on `Cc1ccc(NC(=O)N2C3C[C@H](C)C[C@@H]2C3)cc1-c1cccnc1` [Example 17, cis-3-methyl-N-(4-methyl-3-(pyridin-3-yl)phenyl)-6-azabicyclo[3.1.1]heptane-6-carboxamide] yielded an IC50 (Activity (μM)) of 0.008 µM and an IC50 (Activity) of 0.0001 to 1 µM.

For `Cc1ccc(NC(=O)N2C3CCCC2C3)cc1-c1cnnnc1` [Example 130], the IC50 (Activity (μM)) was 15.5 µM and the IC50 (Activity) was > 10 µM.

Compound `CCc1ccc(NC(=O)N2[C@@H]3C[C@H](C)C[C@H]2C3)cc1-c1cncc(F)c1` [Example 76, trans-N-(4-ethyl-3-(5-fluoropyridin-3-yl)phenyl)-3-methyl-6-azabicyclo[3.1.1]heptane-6-carboxamide] has an IC50 (Activity (μM)) of 0.03 µM and an IC50 (Activity) of 0.0001 to 1 µM.

`C[C@@H]1CC2C[C@@H](C1)N2C(=O)Nc1ccc(C#N)c(-c2cncc(F)c2)c1` (single isomer, unassigned) [Example 77, trans-N-(4-cyano-3-(5-fluoropyridin-3-yl)phenyl)-3-methyl-6-azabicyclo[3.1.1]heptane-6-carboxamide] gave an IC50 (Activity (μM)) of 0.4 µM and an IC50 (Activity) of 0.0001 to 1 µM.

`COc1ccncc1-c1cc(NC(=O)N2C3CCCC2C3)ccc1C` [Example 59, N-[3-(4-methoxypyridin-3-yl)-4-methylphenyl]-6-azabicyclo[3.1.1]heptane-6-carboxamide] gave an IC50 (Activity (μM)) of 1.7 µM and an IC50 (Activity) of 1 to 10 µM.

In the case of `Cc1ccc(NC(=O)N2C3C[C@H](CF)C[C@@H]2C3)cc1-c1cncc(F)c1` [Example 1, cis-3-(fluoromethyl)-N-(3-(5-fluoropyridin-3-yl)-4-methylphenyl)-6-azabicyclo[3.1.1]heptane-6-carboxamide], the IC50 (Activity (μM)) is reported as 0.06 µM and the IC50 (Activity) is reported as 0.0001 to 1 µM.
